Patent US4826847A, “Beta-blocking oxindole derivatives” (Boehringer Mannheim GmbH, priority 1984, dated 1989)
Where a name gives a salt, the structure may show the parent alone. Read-outs that look alike come from different tables or passages of the source.

How the values were obtained:
livers = assay: denitration rate relative to isosorbide-5-mononitrate (Vrel): NO2 freed in perfusate of re-perfused rat livers; conditions: rat liver perfusion 4 min, 5×10^-5 M/l, NO2 determined in the perfusate; high values = fast denitration
[1] = tested on: increase of the frequency through isoprenaline; assay: β-blocking effectiveness: inhibition of isoprenaline-induced increase of the frequency in rabbits; format: in vivo, rabbit; conditions: Oryctolagus cuniculus, iv, read-out: ID 50 fcor (dose which causes an inhibition of 50% of the increase of the frequency through isoprenaline)
[2] = rabbits, i.v., isoprenaline 1 mcg/kg i.v.

| Compound | Vrel (denitration rate in relation to isosorbide-5-mononitrate) (livers) | ED50 [1, 2] [mg/kg] | ED50 [1] [mg/kg] |
| --- | --- | --- | --- |
| CC(C)(CCO[N+](=O)[O-])NCC(O)COc1cccc2c1CC(=O)N2 (centres unmarked) [1 (a), 4-[2-hydroxy-3-(1,1-dimethyl-3-nitratopropylamino)-propoxy]-indolinone hemifumarate] | 1.23 | 0.015 | – |
| CC(CC(C)O[N+](=O)[O-])NCC(O)COc1cccc2c1CC(=O)N2 (centres unmarked) [1 (b), 4-[2-hydroxy-3-(1,3-dimethyl-3-nitratopropylamino)-propoxy]-indolinone fumarate] | 2.02 | 0.0038 | – |
| CC(CCO[N+](=O)[O-])NCC(O)COc1ccc2c(c1)CC(=O)N2 (centres unmarked) [1 (c), 5-[2-hydroxy-3-(1-methyl-3-nitratopropylamino)-propoxy]-indolinone fumarate] | 1.77 | 5.08 | – |
| CC(CCO[N+](=O)[O-])NCC(O)COc1ccc2c(c1)NC(=O)C2 (centres unmarked) [1 (d), 6-[2-hydroxy-3-(1-methyl-3-nitratopropylamino)-propoxy]-indolinone fumarate] | 1.81 | – | – |
| CC(CCO[N+](=O)[O-])NCC(O)COc1cccc2c1NC(=O)C2 (centres unmarked) [1 (e), 7-[2-hydroxy-3-(1-methyl-3-nitratopropylamino)-propoxy]-indolinone fumarate] | 1.79 | – | – |
| CC(CCO[N+](=O)[O-])NCC(O)COc1ccc2c(c1)C(C(C)C)C(=O)N2 (centres unmarked) [1 (f), 5-[2-hydroxy-3-(1-methyl-3-nitratopropylamino)-propoxy]-3-isopropylindolinone] | 3.01 | – | – |
| CC(CCO[N+](=O)[O-])NCC(O)COc1ccc2c(c1)C(C(C)c1ccccc1)C(=O)N2 (stereo not drawn) [1 (g), 5-[2-hydroxy-3-(1-methyl-3-nitratopropylamino)-propoxy]-3-(α-methylbenzyl)-indolinone hemifumarate] | 0.70 | 5.31 | – |
| CC(=C1C(=O)Nc2ccc(OCC(O)CNC(C)CCO[N+](=O)[O-])cc21)c1ccccc1 (stereo not drawn) [1 (i), 5-[2-hydroxy-3-(1-methyl-3-nitratopropylamino)-propoxy]-3-(α-methylbenzylidene)-indolinone hemifumarate] | 0.81 | 3.36 | – |
| CC(CCO[N+](=O)[O-])NCC(O)COc1cccc2c1C(=Cc1ccc[nH]1)C(=O)N2 (centres unmarked) [2 (a), 4-[2-hydroxy-3-(1-methyl-3-nitratopropylamino)-propoxy]-3-(pyrrol-2-yl)-methylene-indolinone hemifumarate] | 2.40 | – | – |
| CC(CCO[N+](=O)[O-])NCC(O)COc1cccc2c1C(=Cc1ccccn1)C(=O)N2 (centres unmarked) [2 (b), 4-[2-hydroxy-3-(1-methyl-3-nitratopropylamino)-propoxy]-3-(pyridin-2-yl)-methylene-indolinone fumarate] | 0.86 | 0.172 | – |
| CC(CCO[N+](=O)[O-])NCC(O)COc1cccc2c1C(=Cc1ccccc1)C(=O)N2 (centres unmarked) [2 (c), 4-[2-hydroxy-3-(1-methyl-3-nitratopropylamino)-propoxy]-3-benzylideneindolinone fumarate] | 0.59 | 1.97 | – |
| CC(CCO[N+](=O)[O-])NCC(O)COc1cccc2c1C(=Cc1ccco1)C(=O)N2 (centres unmarked) [4 (a), 4-[2-hydroxy-3-(1-methyl-3-nitratopropylamino)-propoxy]-3-(furan-2-yl)-methylene-indolinone fumarate] | 0.65 | 0.0096 | – |
| CC(CCO[N+](=O)[O-])NCC(O)COc1cccc2c1C(=Cc1cccs1)C(=O)N2 (centres unmarked) [4 (b), 4-[2-hydroxy-3-(1-methyl-3-nitratopropylamino)-propoxy]-3-(thiophen-2-yl)-methylene-indolinone fumarate] | 0.54 | 0.0276 | – |
| CC(CCO[N+](=O)[O-])NCC(O)COc1cccc2c1C(=Cc1nc[nH]n1)C(=O)N2 (centres unmarked) [4 (d), 4-[2-hydroxy-3-(1-methyl-3-nitratopropylamino)-propoxy]-3-(1,2,4-triazol-3-yl)-methyleneindolinone fumarate] | 1.00 | 0.0096 | – |
| CC(=O)O.CC(CCO[N+](=O)[O-])NCC(O)COc1cccc2c1C(=Cc1cc(=O)[nH]c(=O)[nH]1)C(=O)N2 (centres unmarked) [4 (f), 4-[2-hydroxy-3-(1-methyl-3-nitratopropylamino)-propoxy]-3-(uracil-4-yl)-methylene-indolinone acetate] | 1.80 | – | – |
| CC(C)(CCO[N+](=O)[O-])NCC(O)COc1cccc2c1C(=Cc1ccn[nH]1)C(=O)N2 (centres unmarked) [4 (g), 4-[2-hydroxy-3-(1,1-dimethyl-3-nitratopropylamino)-propoxy]-3-(pyrazol-5-yl)-methylene-indolinone hemifumarate] | 1.59 | 0.013 | – |
| CC(CC(C)O[N+](=O)[O-])NCC(O)COc1cccc2c1C(=Cc1ccn[nH]1)C(=O)N2 (centres unmarked) [4 (h), 4-[2-hydroxy-3-(1,3-dimethyl-3-nitratopropylamino)-propoxy]-3-pyrazol-5-yl)-methylene-indolinone fumarate] | 1.39 | 0.039 | – |
| CC(CCO[N+](=O)[O-])NCC(O)COc1cccc2c1C(=Cc1ccc(C#N)cc1)C(=O)N2 (centres unmarked) [4 (j), 4-[2-hydroxy-3-(1-methyl-3-nitratopropylamino)-propoxy]-3-(4-cyanobenzylidene)-indolinone hemifumarate] | 0.49 | – | – |
| Cc1cc(C=C2C(=O)Nc3cccc(OCC(O)CNCC(C)(C)CO[N+](=O)[O-])c32)[nH]n1 (centres unmarked) [4 (k), 4-[2-hydroxy-3-(2,2-dimethyl-3-nitratopropylamino)-propoxy]-3-(3-methylpyrazol-5-yl)-methyleneindolinone] | 1.88 | – | – |
| CC(CCO[N+](=O)[O-])NCC(O)COc1cccc2c1C(C)(C)C(=O)N2 (centres unmarked) [BV 2, 4-[2-hydroxy-3-(1-methyl-3-nitratopropylamino)-propoxy]-3,3-dimethylindolinone fumarate] | 2.99 | – | – |
| CC(CCO[N+](=O)[O-])NCC(O)COc1cccc2c1C(=Cc1cccc(Cl)c1)C(=O)N2 (centres unmarked) [BV 4, 4-[2-hydroxy-3-(1-methyl-3-nitratopropylamino)-propoxy]-3-(3-chlorobenzylidene)-indolinone fumarate] | 1.22 | 1.09 | – |
| Cc1ccccc1C=C1C(=O)Nc2cccc(OCC(O)CNC(C)CCO[N+](=O)[O-])c21 (centres unmarked) [BV 6, 4-[2-hydroxy-3-(1-methyl-3-nitratopropylamino)-propoxy]-3-(2-methylbenzylidene)-indolinon fumarate] | 0.74 | > 4 | – |
| COc1cccc(C=C2C(=O)Nc3cccc(OCC(O)CNC(C)CCO[N+](=O)[O-])c32)c1 (centres unmarked) [BV 9, 4-[2-hydroxy-3-(1-methyl-3-nitratopropylamino)-propoxy]-3-(3-methoxybenzylidene)-indolinone acetate] | 0.60 | 0.765 | – |
| CC(CCO[N+](=O)[O-])NCC(O)COc1cccc2c1C(=Cc1ccc([N+](=O)[O-])cc1)C(=O)N2 (centres unmarked) [BV 20, 4-[2-hydroxy-3-(1-methyl-3-nitratopropylamino)-propoxy]-3-(4-nitrobenzylidene)-indolinone] | 0.71 | – | 0.113 |
| CC(C)(CNCC(O)COc1cccc2c1CC(=O)N2)CO[N+](=O)[O-] (centres unmarked) [BV 40, 4-[2-hydroxy-3-(2,2-dimethyl-3-nitratopropylamino)-propoxy]-indolinone hemifumarate] | 3.51 | 0.69 | – |
| Cc1cc(C=C2C(=O)Nc3cccc(OCC(O)CNC(C)CCO[N+](=O)[O-])c32)[nH]n1 (centres unmarked) [BV 43, 4-[2-hydroxy-3-(1-methyl-3-nitratopropylamino)-propoxy]-3-(3-methylpyrazol-5-yl)-methyleneindolinone] | 0.83 | 0.0096 | – |
| CC(CCO[N+](=O)[O-])NCC(O)COc1cccc2c1CC(=O)N2 (centres unmarked) [Example 1, 4-[2-hydroxy-3-(1-methyl-3-nitratopropylamino)-propoxy]-indolinone benzoate] | 1.60 | 0.0066 | – |
| CC(CCO[N+](=O)[O-])NCC(O)COc1cccc2c1C(=Cc1ccn[nH]1)C(=O)N2 (centres unmarked) [Example 2, 4-[2-Hydroxy-3-(1-methyl-3-nitratopropylamino)-propoxy]-3-(pyrazol-5-yl)-methyleneindolinone benzoate] | 1.12 | 0.011 | – |
| O=[N+]([O-])O[C@@H]1CO[C@H]2[C@@H]1OC[C@@H]2O [Isosorbide-5-mononitrate, isosorbide-5-mononitrate, reference compound] | 0.86 | – | – |
| CC(C)NCC(O)COc1cccc2[nH]ccc12 (centres unmarked) [Pindolol, reference compound] | – | 0.104 | – |
